Results published in patent publication US20240190864A1 (YA THERAPEUTICS INC, priority 2021, published 2024).

Legend:
BTK = BTK (Homo sapiens, UniProt Q06187); assay: BTK Kinase Test; format: biochemical; conditions: BTK kinase inhibitory activity; enzyme with compound 30 min, ATP 50 μM, ULight poly GT substrate
Method: Dilute 350 ng/uL BTK mother solution with kinase buffer solution (50 mM HEPES, 10 mM MgCl2, 2 mM DTT, 1 mM EGTA, 0.01% Tween 20), and add 6 μL 1.67×0.134 ng/μL working solution (final concentration 0.08 ng/μL), using the nanoliter sampler, add different compounds dissolved by DMSO into the pores, so that the final concentration of the compound is 1000 nM-0.244 nM, and the final concentration of the positive drug is 50 nM-0.0122 nM. Four times the gradient, a total of seven concentrations are available. At the same time, set up blank control pores (without enzyme) and negative control pores (with enzyme, with solvent DMSO), and set up two double pores. After the enzyme reacts with compound or solvent for 30 min, 5×250 μM ATP (final concentration is 50 μM) and 5×0.5 μM Substrate (final concentration 0.1 μμM. ULight poly GT), mix at 1:1, 4 per hole μL is added into the hole; after sealing, add […] to each hole after reacting at room temperature for 2 hours μL 4×8 nM detection reagent (final concentration is 2 nM, Ab), incubate at room temperature for 1 hour; PE instrument reading board (excitation […], emission 665 nm). Calculate the inhibition rate and calculate the IC50 value.

[1] = test system: Diffuse large B cell lymphoma cell strain TMD-8; assay: Tumor Cell Proliferation Inhibition Assay (CellTiter-Glo); format: cell-based; conditions: Homo sapiens, TMD8; TMD-8 cells, incubated with compound 72 hours, 10% fetal calf serum, ATP content
Method: Cell viability was evaluated by measuring a content of triphosadenine (ATP) by using CellTiter-Glo luminescent cell viability assay kit method (Promega, #G7572, Madison, WI). Diffuse large B cell lymphoma cell strain TMD-8 cell strain is purchased from American Type Culture Collection (ATCC). After the cells were digested from a cell culture dish by pancreatin and re-suspended by DPBS culture medium, a Scepter automatic cell counter (Millipore, #PHCC00000) was used for counting to measure a cell density. The cells were diluted to be a solution containing 44,000 cells per milliliter. The cell solution with the adjusted density was added into a cell assay plate with 90 μl per well. The well plate was placed to an incubator with 5% CO2 at 37° C. to be incubated for 24 hours and then added with the compound to be tested with different concentrations. The cells and the compound were together incubated for 72 hours in the presence of 10% fetal calf serum. The content of ATP was measured by using CellTiter-Glo® Luminescent Cell Viability Assay kit (referring to manufacturer's instruction) to evaluate the inhibition to the cell growth. Briefly speaking, each well was added with 30 μl of CellTiter-Glo® reagent, the plate was shaken for 10 minutes to induce the cells to be lysed, and fluorescence signal was detected and recorded by fluorescence/chemiluminescence analyzer Fluoroskan Ascent FL (Thermo Scientific Fluoroskan Ascent FL). The maximal signal value was obtained from cells processed by dimethyl sulfoxide (DMSO) for 72 or 120 hours. The minimal signal value obtained from separate culture medium (wherein the number of cells was zero) was defined as 0. Inhibition ratio %=(maximal signal value−compound signal value)/(maximal signal value−minimal signal value)×100%. The data was processed by using GraphPad Prism V5.0 (GraphPad Software, San Diego, CA) software. IC50 value was fitted and calculated via S-shaped dose-response curve.

Sequence of BTK (Q06187 whole entry): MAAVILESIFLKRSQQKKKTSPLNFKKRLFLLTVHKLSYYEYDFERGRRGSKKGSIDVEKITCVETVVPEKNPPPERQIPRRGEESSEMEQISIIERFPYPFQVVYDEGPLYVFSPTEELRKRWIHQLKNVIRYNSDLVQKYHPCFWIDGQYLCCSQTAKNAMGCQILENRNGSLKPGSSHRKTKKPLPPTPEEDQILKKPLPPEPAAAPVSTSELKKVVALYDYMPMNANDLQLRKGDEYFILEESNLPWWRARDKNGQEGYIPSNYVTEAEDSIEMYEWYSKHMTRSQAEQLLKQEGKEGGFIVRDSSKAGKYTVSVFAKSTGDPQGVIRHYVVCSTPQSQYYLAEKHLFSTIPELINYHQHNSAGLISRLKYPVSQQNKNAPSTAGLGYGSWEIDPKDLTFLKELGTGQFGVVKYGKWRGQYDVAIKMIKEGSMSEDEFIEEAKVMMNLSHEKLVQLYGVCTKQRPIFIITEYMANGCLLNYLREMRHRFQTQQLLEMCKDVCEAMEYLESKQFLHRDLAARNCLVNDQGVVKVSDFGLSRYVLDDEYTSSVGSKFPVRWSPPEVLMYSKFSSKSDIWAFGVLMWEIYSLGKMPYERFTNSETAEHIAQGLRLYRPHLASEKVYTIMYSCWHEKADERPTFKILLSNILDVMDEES

Molecule | IC50 (BTK) | IC50 [1]
(S)-4-(3-acrylamidopyrrolidin-1-yl)-2-oxo-6-(4-phenoxyphenyl)-2,3-dihydro-1H-imidazo[4,5-c]pyridine-7-carboxamide [Compound 4] | ≤ 0.01 µM | 
CC#CC(=O)N[C@@H]1CCCN(c2nc(-c3ccc(Oc4ccccc4)cc3)c(C(N)=O)c3[nH]c(=O)[nH]c23)C1 [Compound 6, (R)-4-(3-(but-2-ynamido)piperidin-1-yl)-2-oxo-6-(4-phenoxyphenyl)-2,3-dihydro-1H-imidazo[4,5-c]pyridine-7-carboxamide] | ≤ 0.01 µM | 
CC#CC(=O)N[C@H]1CCCN(c2nc(-c3ccc(Oc4ccccc4)cc3)c(C(N)=O)c3[nH]cnc23)C1 [Compound 18, (S)-4-(3-(but-2-ynamido)piperidin-1-yl)-6-(4-phenoxyphenyl)-1H-imidazo[4,5-c]pyridine-7-carboxamide] | ≤ 0.01 µM | 
C=CC(=O)N[C@H]1CCCN(c2nc(-c3ccc(Oc4ccccc4)cc3)c(C(N)=O)c3[nH]c(=O)[nH]c23)C1 [Compound 3, (S)-4-(3-acrylamidopiperidin-1-yl)-2-oxo-6-(4-phenoxyphenyl)-2,3-dihydro-1H-imidazo[4,5-c]pyridine-7-carboxamide] | ≤ 0.01 µM | 
CC#CC(=O)N[C@H]1CCN(c2nc(-c3ccc(Oc4ccccc4)cc3)c(C(N)=O)c3[nH]c(=O)[nH]c23)C1 [Compound 5, (S)-4-(3-(but-2-ynamido)pyrrolidin-1-yl)-2-oxo-6-(4-phenoxyphenyl)-2,3-dihydro-1H-imidazo[4,5-c]pyridine-7-carboxamide] | ≤ 0.01 µM | 
CC#CC(=O)N[C@H]1CCCN(c2nc(-c3ccc(Oc4ccccc4)cc3)c(C(N)=O)c3[nH]c(C)nc23)C1 [Compound 19, (S)-4-(3-(but-2-ynamido)piperidin-1-yl)-2-methyl-6-(4-phenoxyphenyl)-1H-imidazo[4,5-c]pyridine-7-carboxamide] | ≤ 0.01 µM | 
CC#CC(=O)N[C@@H]1CCN(c2nc(-c3ccc(Oc4ccccc4)cc3)c(C(N)=O)c3[nH]c(=O)[nH]c23)C1 [Compound 9, (R)-4-(3-(but-2-ynamido)pyrrolidin-1-yl)-2-oxo-6-(4-phenoxyphenyl)-2,3-dihydro-1H-imidazo[4,5-c]pyridine-7-carboxamide] | ≤ 0.01 µM | 
CC#CC(=O)N[C@H]1CCCN(c2nc(-c3ccc(Oc4ccccc4)cc3)c(C(N)=O)c3[nH]ncc23)C1 [Compound 2, (S)-4-(3-(but-2-ynamido)piperidin-1-yl)-6-(4-phenoxyphenyl)-1H-pyrazolo [4,5-c]pyridine-7-carboxamide] | ≤ 0.01 µM | 
CC#CC(=O)N[C@H]1CCCN(c2nc(-c3ccc(Oc4ccccc4)cc3)c(C(N)=O)c3[nH]c(=O)[nH]c23)C1 [Compound 1, (S)-4-(3-(but-2-ynamido)piperidin-1-yl)-2-oxo-6-(4-phenoxyphenyl)-2,3-dihydro-1H-imidazo[4,5-c]pyridine-7-carboxamide] | ≤ 0.01 µM | 
(R)-4-(3-acrylamidopiperidin-1-yl)-2-oxo-6-(4-phenoxyphenyl)-2,3-dihydro-1H-imidazo[4,5-c]pyridine-7-carboxamide [Compound 8] | ≤ 0.01 µM | 
(R)-4-(3-(but-2-ynamido)piperidin-1-yl)-6-(4-phenoxyphenyl)-1H-pyrazolo [4,3-c]pyridine-7-carboxamide [Compound 7] | ≤ 0.01 µM | 

Now from value to molecule:

IC50 (BTK) | IC50 [1] | Molecule
≤ 0.01 µM | ≤ 0.01 µM | C=CC(=O)N1CCC(c2ncc(C(N)=O)c3[nH]c(=O)[nH]c23)CC1 [Compound 40, 4-(1-acryloylpiperidin-4-yl)-2-oxo-2,3-dihydro-1H-imidazo[4,5-c]pyridine-7-carboxamide]
≤ 0.01 µM | ≤ 0.01 µM | CC#CC(=O)N[C@H]1CCCN(c2nc(-c3ccc(Oc4ccccc4)cc3)c(C(N)=O)c3[nH]ccc23)C1 [Compound 23, (S)-4-(3-(but-2-ynamido)piperidin-1-yl)-6-(4-phenoxyphenyl)-1H-pyrrolo[3,2-c]pyridine-7-carboxamide]
≤ 0.01 µM |  | C=CC(=O)N1CCC(c2nc(-c3ccc(Oc4ccccc4)cc3)c(C(N)=O)c3[nH]c(=O)[nH]c23)CC1 [Compound 20, 4-(1-acryloylpiperidin-4-yl)-2-oxo-6-(4-phenoxyphenyl)-2,3-dihydro-1H-imidazo[4,5-c]pyridine-7-carboxamide]
≤ 0.01 µM |  | CC#CC(=O)N[C@@H]1CCCN(c2nc(-c3ccc(Oc4ccccc4)cc3)c(C(N)=O)c3[nH]ccc23)C1 [Compound 24, (R)-4-(3-(but-2-ynamido)piperidin-1-yl)-6-(4-phenoxyphenyl)-1H-pyrrolo[3,2-c]pyridine-7-carboxamide]
≤ 0.01 µM |  | CC#CC(=O)N[C@H]1CCCN(c2ncc(C(N)=O)c3[nH]c(=O)c(=O)[nH]c23)C1 [Compound 28, (S)-5-(3-(but-2-ynamido)piperidin-1-yl)-2,3-dioxo-1,2,3,4-tetrahydropyrido[3,4-b]pyrazine-8-carboxamide]
≤ 0.01 µM | ≤ 0.01 µM | C=CC(=O)N1CCC[C@@H](c2nc(-c3ccc(Oc4ccccc4)cc3)c(C(N)=O)c3[nH]ccc23)C1 [Compound 27, (R)-4-(1-acryloylpiperidin-3-yl)-6-(4-phenoxyphenyl)-1H-pyrrolo[3,2-c]pyridine-7-carboxamide]
≤ 0.01 µM | ≤ 0.01 µM | C=CC(=O)N1CCC[C@H](c2nc(-c3ccc(Oc4ccccc4)cc3)c(C(N)=O)c3[nH]ccc23)C1 [Compound 26, (S)-4-(1-acryloylpiperidin-3-yl)-6-(4-phenoxyphenyl)-1H-pyrrolo[3,2-c]pyridine-7-carboxamide]
≤ 0.01 µM | ≤ 0.01 µM | CC#CC(=O)N[C@H]1CCCN(c2ncc(C(N)=O)c3[nH]c(=O)[nH]c23)C1 [Compound 38, (S)-4-(3-(but-2-ynamido)piperidin-1-yl)-2-oxo-2,3-dihydro-1H-imidazo[4,5-c]pyridine-7-carboxamide]
≤ 0.01 µM | ≤ 0.01 µM | C=CC(=O)N1CCC(c2nc(-c3ccc(Oc4ccccc4)cc3)c(C(N)=O)c3[nH]ccc23)CC1 [Compound 25, 4-(1-acryloylpiperidin-4-yl)-6-(4-phenoxyphenyl)-1H-pyrrolo [3,2-c]pyridine-7-carboxamide]
≤ 0.01 µM |  | CC#CC(=O)N[C@H]1CCCN(c2ncc(C(N)=O)c3[nH]cnc23)C1 [Compound 36, (S)-4-(3-(but-2-ynamido)piperidin-1-yl)-1H-imidazo[4,5-c]pyridine-7-carboxamide]
